Data: US20220324835A1 (Nurix Therapeutics, Inc., priority 2018, published 2022)

Experiments:
Cbl-b [1] = biological target: T1, Cbl-b (Homo sapiens, UniProt Q13191); test: Cbl-b inhibition assay (Cbl-b activity assay, FRET, Biological Example 1; 100 mM NaCl, 60 nM Src kinase); format: biochemical; details: upper bound stated in text lists; read-out: IC50 values in the Cbl-b inhibition assay of Biological Example 1
Procedure, shortened: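 FRET read-out: loss of signal marks inhibition. Mix = biotin-Avi-Cbl-b (N-term), Src kinase, UbcH5B-Ub(Bodipy-FL, irreversible conjugate), streptavidin-Tb, assay buffer.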

T-cell [2] = test: IL-2 secretion from T-cells co-stimulated with anti-CD3 and anti-CD28 antibody (Biological Example 2); format: cell-based, human; details: Homo sapiens, T-cell, primary human total T-cells, baseline = anti-CD3/anti-CD28 stimulated cells without inhibitor, read-out: IL-2 secretion, Anti-CD3/Anti-CD28 stimulation, fold change over baseline; for fold induction at 0.3 µM: 0.3 μM compound; for fold induction at 1 µM: 1 μM compound; for fold induction at 4 µM: 4 μM compound
Procedure, shortened: (§1)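 Values are fold-change over baseline: readings (IL-2 release, CD25 staining) from inhibitor-treated T-cells divided against untreated cells […]. No detailed procedure stated.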

T-cell [3] = test: CD25 cell surface staining on T-cells co-stimulated with anti-CD3 and anti-CD28 antibody (Biological Example 2); format: cell-based, human; details: Homo sapiens, T-cell, primary human total T-cells, baseline = anti-CD3/anti-CD28 stimulated cells without inhibitor, read-out: CD25 staining, Anti-CD3/Anti-CD28 stimulation, fold change over baseline; for fold induction at 0.3 µM: 0.3 μM compound; for fold induction at 1 µM: 1 μM compound; for fold induction at 4 µM: 4 μM compound
Procedure, shortened: as §1

Cbl-b [4] = biological target: T1, Cbl-b; test: Cbl-b activity assay (Cbl-b inhibition assay), TR-FRET of Cbl-b interaction with UbcH5B-Ub; format: biochemical; details: assay buffer with 100 mM NaCl, 60 nM Src kinase; read-out: Cbl-b activity IC50
Procedure, shortened: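 Compound-treated Cbl-b was incubated 1.5 h with Src kinase (60 nM final; 30 nM for asterisked values, which also used 50 mM instead of 100 mM NaCl), 1 mM ATP and 5 mM MgCl2. Binding to fluorescent Ub-loaded UbcH5B (C85K mutant) was then read by TR-FRET after 1 h more.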

T-cell [5] = test: IL-2 secretion from T-cells stimulated with anti-CD3 antibody alone (Biological Example 2); format: cell-based; details: primary human total T-cells, read-out: IL-2 secretion, Anti-CD3 stimulation, fold change over baseline; for fold induction at 1 µM: 1 μM compound; for fold induction at 8 µM: 8 μM compound
T-cell [6] = test: CD25 cell surface staining on T-cells stimulated with anti-CD3 antibody alone (Biological Example 2); format: cell-based; details: primary human total T-cells, baseline = anti-CD3/anti-CD28 stimulated cells without inhibitor, read-out: CD25 staining, Anti-CD3 stimulation, fold change over baseline; for fold induction at 1 µM: 1 μM compound; for fold induction at 8 µM: 8 μM compound

T1 sequence (Q13191 36-427): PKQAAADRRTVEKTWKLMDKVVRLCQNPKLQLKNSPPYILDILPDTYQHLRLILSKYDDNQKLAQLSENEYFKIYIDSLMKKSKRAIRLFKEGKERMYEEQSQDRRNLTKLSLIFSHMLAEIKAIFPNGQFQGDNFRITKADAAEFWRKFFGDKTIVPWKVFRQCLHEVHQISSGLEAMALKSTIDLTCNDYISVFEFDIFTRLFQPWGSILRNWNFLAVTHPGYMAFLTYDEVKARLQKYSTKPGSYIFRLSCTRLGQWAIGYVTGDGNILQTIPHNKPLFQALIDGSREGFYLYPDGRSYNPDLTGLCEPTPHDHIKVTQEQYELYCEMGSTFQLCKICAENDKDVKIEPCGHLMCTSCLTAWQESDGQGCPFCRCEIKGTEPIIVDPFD

Structure (SMILES) | IC50 (Cbl-b [1]) [nM] | fold induction at 0.3 µM (T-cell [2]) | fold induction at 1 µM (T-cell [2]) | fold induction at 4 µM (T-cell [2]) | fold induction at 0.3 µM (T-cell [3]) | fold induction at 1 µM (T-cell [3]) | fold induction at 4 µM (T-cell [3]) | IC50 (Cbl-b [4]) [nM] | fold induction at 1 µM (T-cell [5]) | fold induction at 8 µM (T-cell [5]) | fold induction at 1 µM (T-cell [6]) | fold induction at 8 µM (T-cell [6])
C[C@H](c1cc2c(c(C(F)(F)F)c1)CN(c1cccc([C@@](C)(F)C(F)(F)c3nncn3C)c1)C2=O)N1CC[C@H](F)C1 [Compound 459, 6-((R)-1-((S)-3-fluoropyrrolidin-1-yl)ethyl)-2-(3-((R)-1,1,2-trifluoro-1-(4-methyl-4H-1,2,4-triazol-3-yl)propan-2-yl)phenyl)-4-(trifluoromethyl)isoindolin-1-one] | ≤ 100 | 2.51 to 5 | > 7.5 | > 7.5 | 1.01 to 1.3 | 1.31 to 1.5 | 1.51 to 1.75 | < 100 | > 0.201 | > 0.201 | > 1 | > 1
C[C@@H](c1cc2c(c(C(F)(F)F)c1)CN(c1cccc([C@@](C)(F)C(F)(F)c3nncn3C)c1)C2=O)N1CC[C@H](F)C1 [Compound 460, 6-((S)-1-((S)-3-fluoropyrrolidin-1-yl)ethyl)-2-(3-((R)-1,1,2-trifluoro-1-(4-methyl-4H-1,2,4-triazol-3-yl)propan-2-yl)phenyl)-4-(trifluoromethyl)isoindolin-1-one] | ≤ 100 | > 7.5 | > 7.5 | > 7.5 | 1.31 to 1.5 | 1.51 to 1.75 | 1.51 to 1.75 | < 100 | > 0.201 | > 0.201 | > 1 | > 1
Cn1cnnc1C(F)(F)[C@](C)(F)c1cccc(N2Cc3c(cc(CN4C[C@@H](F)[C@@H](F)C4)cc3C(F)(F)F)C2=O)c1 [Compound 461, 6-(((3R,7S)-3,4-difluoropyrrolidin-1-yl)methyl)-2-(3-((R)-1,1,2-trifluoro-1-(4-methyl-4H-1,2,4-triazol-3-yl)propan-2-yl)phenyl)-4-(trifluoromethyl)isoindolin-1-one] | ≤ 100 | 2.51 to 5 | 5 to 7.5 | > 7.5 | 1.31 to 1.5 | 1.31 to 1.5 | 1.51 to 1.75 | < 100 | 0.151 to 0.2 | > 0.201 | > 1 | > 1
Cn1cnnc1C(F)(F)C1(c2cccc(N3Cc4c(cc(CN5CC[C@H](F)C5)cc4C(F)(F)F)C3=O)c2)CC1 [Compound 462, (S)-2-(3-(1-(difluoro(4-methyl-4H-1,2,4-triazol-3-yl)methyl)cyclopropyl)phenyl)-6-((3-fluoropyrrolidin-1-yl)methyl)-4-(trifluoromethyl)isoindolin-1-one] | ≤ 100 | 5 to 7.5 | > 7.5 |  | 1.01 to 1.3 | 1.31 to 1.5 |  | < 100 | > 0.201 |  | > 1 | 
CC(c1cc2c(c(C(F)(F)F)c1)CN(c1cccc([C@H]3C[C@H]3c3nncn3C)c1)C2=O)N1CC[C@H](F)C1 (stereo partly drawn) [Compound 466, 6-(1-((S)-3-fluoropyrrolidin-1-yl)ethyl)-2-(3-((1S,2R)-2-(4-methyl-4H-1,2,4-triazol-3-yl)cyclopropyl)phenyl)-4-(trifluoromethyl)isoindolin-1-one] | ≤ 100 | 2.51 to 5 | > 7.5 | > 7.5 | 1.31 to 1.5 | 1.51 to 1.75 | 1.51 to 1.75 | < 100 | > 0.201 | > 0.201 | > 1 | > 1
CCOc1cc(N2Cc3c(cc(CN4CC[C@H](F)C4)cc3C(F)(F)F)C2=O)cc(C2(Cc3nncn3C)COC2)c1 [Compound 468, 2-(3-ethoxy-5-{3-[(4-methyl-4H-1,2,4-triazol-3-yl)methyl]oxetan-3-yl}phenyl)-6-{[(3×)-3-fluoropyrrolidin-1-yl]methyl}-4-(trifluoromethyl)-2,3-dihydro-1H-isoindol-1-one] | ≤ 100 | 5 to 7.5 | > 7.5 |  | 1.31 to 1.5 | 1.31 to 1.5 |  | < 100 | > 0.201 |  | > 1 | 
CCOc1cc([C@@](C)(F)C(F)(F)c2nncn2C)cc(NC(=O)c2cc(C)nc(C3CC3)n2)n1 [Compound 469, 2-cyclopropyl-N-{6-ethoxy-4-[(2R)-1,1,2-trifluoro-1-(4-methyl-4H-1,2,4-triazol-3-yl)propan-2-yl]pyridin-2-yl}-6-methylpyrimidine-4-carboxamide] | ≤ 300 | 1.01 to 2.5 | 1.01 to 2.5 |  | 1.01 to 1.3 | 1.01 to 1.3 |  | 100 to 300 | 0.101 to 0.15 |  | 0.801 to 1 | 
Cn1cnnc1C[C@]1(c2cccc(N3Cc4c(cccc4C(F)(F)F)C3=O)c2)C[C@H](CO)C1 [Compound 470, 2-{3-[(1R,3R)-3-(hydroxymethyl)-1-[(4-methyl-4H-1,2,4-triazol-3-yl)methyl]cyclobutyl]phenyl}-4-(trifluoromethyl)-2,3-dihydro-1H-isoindol-1-one] | ≤ 300 | 1.01 to 2.5 | 2.51 to 5 | 5 to 7.5 | 1.31 to 1.5 | 1.51 to 1.75 | 1.51 to 1.75 | 100 to 300 | 0.101 to 0.15 | > 0.201 | 0.801 to 1 | > 1
C[C@H](Cc1nocc1C(F)(F)F)c1cccc(N2Cc3c(cc(C(=O)N4CC[C@H](O)C4)cc3C(F)(F)F)C2=O)c1 [Compound 484, 6-[(3S)-3-hydroxypyrrolidine-1-carbonyl]-4-(trifluoromethyl)-2-[3-[(2R)-1-[4-(trifluoromethyl)-1,2-oxazol-3-yl]propan-2-yl]phenyl]-2,3-dihydro-1H-isoindol-1-one] | ≤ 300 | 1.01 to 2.5 | 1.01 to 2.5 | 2.51 to 5 | 1.01 to 1.3 | 1.01 to 1.3 | 1.31 to 1.5 | 100 to 300 | 0.051 to 0.1 | > 0.201 | 0.601 to 0.8 | > 1
C[C@H](Cc1nocc1C(F)(F)F)c1cccc(N2Cc3c(cc(CN4CC[C@H](F)C4)cc3C(F)(F)F)C2=O)c1 [Compound 485, 6-[[(3S)-3-fluoropyrrolidin-1-yl]methyl]-4-(trifluoromethyl)-2-[3-[(2R)-1-[4-(trifluoromethyl)-1,2-oxazol-3-yl]propan-2-yl]phenyl]-2,3-dihydro-1H-isoindol-1-one] | ≤ 300 | 1.01 to 2.5 | 1.01 to 2.5 | 2.51 to 5 | 1.01 to 1.3 | 1.01 to 1.3 | 1.31 to 1.5 | 100 to 300 | < 0.05 | 0.101 to 0.15 | 0.601 to 0.8 | > 1
Cn1cnnc1CC1(c2cccc(N3Cc4c(cc(CN5CCCC6CC65)cc4C(F)(F)F)C3=O)c2)COC1 (centres unmarked) [Compound 490, 6-((2-azabicyclo[4.1.0]heptan-2-yl)methyl)-2-(3-(3-((4-methyl-4H-1,2,4-triazol-3-yl)methyl)oxetan-3-yl)phenyl)-4-(trifluoromethyl)isoindolin-1-one] | ≤ 100 | > 7.5 | > 7.5 |  | 1.01 to 1.3 | 1.01 to 1.3 |  | < 100 | > 0.201 |  | > 1 | 
